Laboratory results taken from article PMC7578299, “The antiviral effects of baloxavir marboxil against influenza A virus infection in ferrets” (Influenza and Other Respiratory Viruses, 2020).
Several values for one entry are separate records, joined by “and”; a condition that tells them apart may be missing. Equal values may be shown once. Read-outs that look alike come from different tables or passages of the source.

Experiments:
[1] = Stability in plasma, ferret; format: in vitro ADME; settings: incubation of BXM; for % Residual in plasma (BXA, calculated from BXM concentration at 0 min as molar concentration): mean of duplicate; for % Residual in plasma Individual value (BXA, from BXM concentration at 0 minutes as molar concentration): duplicates
Description: (§1) Approximately 30 mL of blood from Japanese male healthy volunteers was collected and centrifuged to obtain plasma. Blood samples from ferrets, rats, dogs, and monkeys were collected under anesthesia and centrifuged to obtain plasma. BXM was added to reach a final concentration of 200 ng/mL to all pooled plasma samples per species. After incubation for 5, 15, and 30 minutes at 37°C, twofold volume of ice‐cold acetonitrile/methanol (1:1, v/v) was added to the plasma samples to stop further reactions, which were then centrifuged at 1800 g for 10 minutes prior to LC‐MS/MS analysis of BXM in the supernatants.

Stability in plasma, dog = format: in vitro ADME; settings: incubation of BXM; for % Residual in plasma (BXA, calculated from BXM concentration at 0 min as molar concentration): mean of duplicate; for % Residual in plasma Individual value (BXA, from BXM concentration at 0 minutes as molar concentration): duplicates
Description: as §1

[2] = Stability in plasma, monkey; format: in vitro ADME; settings: incubation of BXM; for % Residual in plasma (BXA, calculated from BXM concentration at 0 min as molar concentration): mean of duplicate; for % Residual in plasma Individual value (BXA, from BXM concentration at 0 minutes as molar concentration): duplicates
Description: as §1

[3] = Stability in plasma, human; format: in vitro ADME; settings: incubation of BXM; for % Residual in plasma (BXA, calculated from BXM concentration at 0 min as molar concentration): mean of duplicate; for % Residual in plasma Individual value (BXA, from BXM concentration at 0 minutes as molar concentration): duplicates
Description: as §1

Stability in plasma, rat = format: in vitro ADME; settings: incubation of BXM; for % Residual in plasma (BXA, calculated from BXM concentration at 0 min as molar concentration): mean of duplicate; for % Residual in plasma Individual value (BXA, from BXM concentration at 0 minutes as molar concentration): duplicates
Description: as §1

[4] = Pharmacokinetic analysis in ferrets after a single oral administration of BXM; format: in vivo, ferret
Description: One day prior to administration, group assignment was carried out taking body weight into account. Under isoflurane anesthesia, fasted ferrets (four per group) received BXM (10 or 30 mg/5 mL/kg) suspension orally using an intragastric tube. Blood samples were collected at 0.5, 1, 2, 4, 6, 8, and 24 hours after single oral administration of BXM and centrifuged to obtain plasma. The concentrations of BXA and BXM in plasma were determined by liquid chromatography‐tandem mass spectrometry (LC‐MS/MS). The lower limit of quantification of BXA and BXM in ferret plasma was 0.5 ng/mL. The pharmacokinetic parameters of BXA and BXM were calculated using non‐compartmental analysis module in Phoenix WinNonlin software (version 8.0; Certara LP) (https://onlinehelp.certara.com/phoenix/8.2/topics/nca.htm) based on a non‐compartment model analysis with uniform weighting.

[5] = 5% SDS water vs 0.5% MC, BXM 10 mg/kg
[6] = single oral BXM 10 mg/kg, 0.5% MC vehicle, mean of three ferrets
[7] = single oral BXM 10 mg/kg, 5% SDS water vehicle, mean of four ferrets
[8] = single oral BXM 10 mg/kg, individual ferrets (Ferret-01 to Ferret-04)
[9] = single oral BXM 10 mg/kg, mean of four ferrets
[10] = single oral BXM 30 mg/kg, 5% SDS water vehicle, mean of four ferrets
[11] = single oral BXM 30 mg/kg, individual ferrets (Ferret-05 to Ferret-08)
[12] = single oral BXM 30 mg/kg, mean of four ferrets

SMILES: O=C1c2c(O)c(=O)ccn2N([C@@H]2c3ccccc3SCc3c2ccc(F)c3F)[C@@H]2COCCN12 [BXA, baloxavir acid]
- % Residual in plasma (BXA, calculated from BXM concentration at 0 min as molar concentration) ([1]; 10 min): 4.6%
- % Residual in plasma Individual value (BXA, from BXM concentration at 0 minutes as molar concentration) ([1]; 10 minutes): 4.6% and 4.7%
- % Residual in plasma (BXA, calculated from BXM concentration at 0 min as molar concentration) ([1]; 20 min): 13.9%
- % Residual in plasma Individual value (BXA, from BXM concentration at 0 minutes as molar concentration) ([1]; 20 minutes): 13.8% and 14.1%
- % Residual in plasma (BXA, calculated from BXM concentration at 0 min as molar concentration) ([1]; 30 min): 24.9%
- % Residual in plasma Individual value (BXA, from BXM concentration at 0 minutes as molar concentration) ([1]; 30 minutes): 24.9% and 25.0%
- % Residual in plasma (BXA, calculated from BXM concentration at 0 min as molar concentration) (Stability in plasma, dog; 10 min): 2.8%
- % Residual in plasma Individual value (BXA, from BXM concentration at 0 minutes as molar concentration) (Stability in plasma, dog; 10 minutes): 2.8%
- % Residual in plasma (BXA, calculated from BXM concentration at 0 min as molar concentration) (Stability in plasma, dog; 20 min): 8.2%
- % Residual in plasma Individual value (BXA, from BXM concentration at 0 minutes as molar concentration) (Stability in plasma, dog; 20 minutes): 8.1% and 8.2%
- % Residual in plasma (BXA, calculated from BXM concentration at 0 min as molar concentration) (Stability in plasma, dog; 30 min): 15.6%
- % Residual in plasma Individual value (BXA, from BXM concentration at 0 minutes as molar concentration) (Stability in plasma, dog; 30 minutes): 15.6%
- % Residual in plasma (BXA, calculated from BXM concentration at 0 min as molar concentration) ([2]; 10 min): 9.0%
- % Residual in plasma Individual value (BXA, from BXM concentration at 0 minutes as molar concentration) ([2]; 10 minutes): 8.9% and 9.1%
- % Residual in plasma (BXA, calculated from BXM concentration at 0 min as molar concentration) ([2]; 20 min): 24.0%
- % Residual in plasma Individual value (BXA, from BXM concentration at 0 minutes as molar concentration) ([2]; 20 minutes): 23.5% and 24.6%
- % Residual in plasma (BXA, calculated from BXM concentration at 0 min as molar concentration) ([2]; 30 min): 43.0%
- % Residual in plasma Individual value (BXA, from BXM concentration at 0 minutes as molar concentration) ([2]; 30 minutes): 44.0% and 42.1%
- % Residual in plasma (BXA, calculated from BXM concentration at 0 min as molar concentration) ([3]; 10 min): 8.3%
- % Residual in plasma Individual value (BXA, from BXM concentration at 0 minutes as molar concentration) ([3]; 10 minutes): 8.4% and 8.3%
- % Residual in plasma (BXA, calculated from BXM concentration at 0 min as molar concentration) ([3]; 20 min): 22.4%
- % Residual in plasma Individual value (BXA, from BXM concentration at 0 minutes as molar concentration) ([3]; 20 minutes): 22.4%
- % Residual in plasma (BXA, calculated from BXM concentration at 0 min as molar concentration) ([3]; 30 min): 38.1%
- % Residual in plasma Individual value (BXA, from BXM concentration at 0 minutes as molar concentration) ([3]; 30 minutes): 38.4% and 37.8%
- % Residual in plasma (BXA, calculated from BXM concentration at 0 min as molar concentration) (Stability in plasma, rat; 10 min): 104.6%
- % Residual in plasma Individual value (BXA, from BXM concentration at 0 minutes as molar concentration) (Stability in plasma, rat; 10 minutes): 102.8% and 106.3%
- % Residual in plasma (BXA, calculated from BXM concentration at 0 min as molar concentration) (Stability in plasma, rat; 20 min): 104.0%
- % Residual in plasma Individual value (BXA, from BXM concentration at 0 minutes as molar concentration) (Stability in plasma, rat; 20 minutes): 102.2% and 105.9%
- % Residual in plasma (BXA, calculated from BXM concentration at 0 min as molar concentration) (Stability in plasma, rat; 30 min): 103.2%
- % Residual in plasma Individual value (BXA, from BXM concentration at 0 minutes as molar concentration) (Stability in plasma, rat; 30 minutes): 103.0% and 103.4%
- AUC0-24hr, Ratio to 0.5% MC [4, 5]: 7.0
- C24hr, Ratio to 0.5% MC [4, 5]: 13.6
- Cmax, Ratio to 0.5% MC [4, 5]: 4.2
- T1/2, Ratio to 0.5% MC [4, 5]: 1.5
- Tmax, Ratio to 0.5% MC [4, 5]: 3.0
- AUC0-24hr [4, 6]: 60.2 ng·h/mL
- C24hr [4, 6]: 0.223 ng/mL
- Cmax [4, 6]: 15.8 ng/mL
- T1/2 [4, 6]: 4.60 h
- Tmax [4, 6]: 30 min
- AUC0-24 h [4, 7]: 421 ± 119 ng·h/mL
- C 24 h [4, 7]: 3.03 ± 2.33 ng/mL and 3.03 ng/mL
- C max [4, 7]: 66.6 ± 14.6 ng/mL
- T 1/2 (terminal elimination half-life) [4, 7]: 6.91 ± 3.79 h
- T max [4, 7]: 1.50 ± 0.58 h
- AUC0-24hr, individual data [4, 8]: 292 ng·h/mL and 576 ng·h/mL and 439 ng·h/mL and 378 ng·h/mL
- C24hr, individual data [4, 8]: 0.792 ng/mL and 3.90 ng/mL and 1.52 ng/mL and 5.90 ng/mL
- Cmax, individual data [4, 8]: 59.4 ng/mL and 80.1 ng/mL and 77.3 ng/mL and 49.5 ng/mL
- T1/2, individual data [4, 8]: 4.21 h and 6.47 h and 4.57 h and 12.4 h
- Tmax, individual data [4, 8]: 1.00 hr (2×) and 2.00 hr (2×)
- AUC0-24 h [4, 9]: 0.871 ± 0.246 µM·h
- C 24 h [4, 9]: 6.26 ± 4.82 nmol/L
- Cmax ([4]; single oral BXM 10 mg/kg, mean of four ferrets, read-out: C max): 138 ± 30 nM
- AUC0-24 h [4, 10]: 3240 ± 3240 ng·h/mL
- C 24 h [4, 10]: 9.91 ± 8.77 ng/mL and 9.91 ng/mL
- C max [4, 10]: 365 ± 316 ng/mL
- T 1/2 (terminal elimination half-life) [4, 10]: 4.44 ± 0.67 h
- T max [4, 10]: 2.00 ± 1.41 h
- AUC0-24hr, individual data [4, 11]: 7580 ng·h/mL and 3840 ng·h/mL and 1040 ng·h/mL and 508 ng·h/mL
- C24hr, individual data [4, 11]: 21.3 ng/mL and 12.3 ng/mL and 3.38 ng/mL and 2.64 ng/mL
- Cmax, individual data [4, 11]: 754 ng/mL and 489 ng/mL and 128 ng/mL and 89.6 ng/mL
- T1/2, individual data [4, 11]: 3.90 h and 4.32 h and 4.12 h and 5.41 h
- Tmax, individual data [4, 11]: 1.00 hr (2×) and 4.00 hr and 2.00 hr
- AUC0-24 h [4, 12]: 6.71 ± 6.71 µM·h
- C 24 h [4, 12]: 20.5 ± 18.2 nmol/L
- Cmax ([4]; single oral BXM 30 mg/kg, mean of four ferrets, read-out: C max): 755 ± 653 nM
